Test results reported in ChEMBL document CHEMBL3991601, “The target landscape of clinical kinase drugs” (Science, 2017).
Activity calls are given as the source filed them. Rule as the data show it, for most assays here: actives have a measured Kd and inactives only a lower limit.

Tests used:
[1] = target: Serine/threonine-protein kinase SIK2 (Homo sapiens, UniProt Q9H0K1)
[2] = target: Cyclin-dependent kinase 5 (Homo sapiens, UniProt Q00535)
[3] = target: T1, Uncharacterized protein FLJ45252 (Homo sapiens, UniProt Q6ZSR9); conditions: read-out: Kd apparent; k-562, colo 205, sk-n-be(2) and mv-4-11
T1 sequence (Q6ZSR9 whole entry): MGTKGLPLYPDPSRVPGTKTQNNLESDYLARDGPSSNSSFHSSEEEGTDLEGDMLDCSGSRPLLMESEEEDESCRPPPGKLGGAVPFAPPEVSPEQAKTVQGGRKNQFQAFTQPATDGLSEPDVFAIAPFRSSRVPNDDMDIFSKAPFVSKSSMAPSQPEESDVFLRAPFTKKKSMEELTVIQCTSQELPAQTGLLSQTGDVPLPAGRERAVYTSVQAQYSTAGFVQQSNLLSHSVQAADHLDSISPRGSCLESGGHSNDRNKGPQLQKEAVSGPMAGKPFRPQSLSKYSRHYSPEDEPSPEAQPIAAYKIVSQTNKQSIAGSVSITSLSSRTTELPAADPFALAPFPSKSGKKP

[4] = target: T2, Dual specificity mitogen-activated protein kinase kinase 6 (Homo sapiens, UniProt P52564)
T2 sequence (P52564 whole entry): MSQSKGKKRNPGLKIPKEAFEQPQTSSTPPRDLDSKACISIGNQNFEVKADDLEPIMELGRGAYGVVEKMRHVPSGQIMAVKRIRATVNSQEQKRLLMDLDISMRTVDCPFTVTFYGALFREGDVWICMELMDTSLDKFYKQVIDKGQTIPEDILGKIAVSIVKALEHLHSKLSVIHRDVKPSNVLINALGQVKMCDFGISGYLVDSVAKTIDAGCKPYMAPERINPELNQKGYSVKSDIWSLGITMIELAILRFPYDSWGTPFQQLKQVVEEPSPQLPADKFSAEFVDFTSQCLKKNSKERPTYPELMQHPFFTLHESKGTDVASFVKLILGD

[5] = target: Protein kinase C delta type (Homo sapiens, UniProt Q05655)
[6] = target: T3, Serine/threonine-protein kinase NLK (Homo sapiens, UniProt Q9UBE8)
T3 sequence (Q9UBE8 whole entry): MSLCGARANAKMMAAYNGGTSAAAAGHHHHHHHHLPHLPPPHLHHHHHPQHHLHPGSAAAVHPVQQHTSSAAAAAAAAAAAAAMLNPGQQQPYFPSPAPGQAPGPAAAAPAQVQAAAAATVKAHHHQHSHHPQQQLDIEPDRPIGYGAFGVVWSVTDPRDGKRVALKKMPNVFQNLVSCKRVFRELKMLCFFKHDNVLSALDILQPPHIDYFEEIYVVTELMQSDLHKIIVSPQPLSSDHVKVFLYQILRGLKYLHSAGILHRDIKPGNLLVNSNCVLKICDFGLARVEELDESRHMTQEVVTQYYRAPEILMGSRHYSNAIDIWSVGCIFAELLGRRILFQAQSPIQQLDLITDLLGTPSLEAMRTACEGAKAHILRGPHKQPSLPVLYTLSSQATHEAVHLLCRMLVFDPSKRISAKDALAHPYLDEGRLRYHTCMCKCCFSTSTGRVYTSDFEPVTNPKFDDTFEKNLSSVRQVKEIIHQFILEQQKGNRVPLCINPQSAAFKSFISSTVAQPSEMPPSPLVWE

Glycine--tRNA ligase = target: T4, Glycine--tRNA ligase (Homo sapiens, UniProt P41250)
T4 sequence (P41250 whole entry): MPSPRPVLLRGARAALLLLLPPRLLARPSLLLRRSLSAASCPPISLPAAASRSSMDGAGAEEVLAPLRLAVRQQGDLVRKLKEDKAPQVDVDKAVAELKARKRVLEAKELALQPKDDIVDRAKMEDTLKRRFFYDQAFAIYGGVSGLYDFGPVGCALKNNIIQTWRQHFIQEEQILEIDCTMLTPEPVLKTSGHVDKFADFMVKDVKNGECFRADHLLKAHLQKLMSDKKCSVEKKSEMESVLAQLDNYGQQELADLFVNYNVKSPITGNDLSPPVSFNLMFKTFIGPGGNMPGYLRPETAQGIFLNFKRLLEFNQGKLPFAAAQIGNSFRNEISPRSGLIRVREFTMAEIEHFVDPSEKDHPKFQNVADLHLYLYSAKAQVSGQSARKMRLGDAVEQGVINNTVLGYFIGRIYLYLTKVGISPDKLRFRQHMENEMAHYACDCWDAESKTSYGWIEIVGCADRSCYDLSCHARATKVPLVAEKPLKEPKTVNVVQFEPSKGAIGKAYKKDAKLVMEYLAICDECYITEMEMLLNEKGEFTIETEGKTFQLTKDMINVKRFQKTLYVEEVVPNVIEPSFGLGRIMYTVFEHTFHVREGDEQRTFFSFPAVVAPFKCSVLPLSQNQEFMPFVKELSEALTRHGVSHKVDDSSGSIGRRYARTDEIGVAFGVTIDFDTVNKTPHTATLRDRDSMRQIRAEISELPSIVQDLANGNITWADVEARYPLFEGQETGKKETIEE

[7] = target: T5, Inhibitor of nuclear factor kappa-B kinase subunit epsilon (Homo sapiens, UniProt Q14164)
T5 sequence (Q14164 whole entry): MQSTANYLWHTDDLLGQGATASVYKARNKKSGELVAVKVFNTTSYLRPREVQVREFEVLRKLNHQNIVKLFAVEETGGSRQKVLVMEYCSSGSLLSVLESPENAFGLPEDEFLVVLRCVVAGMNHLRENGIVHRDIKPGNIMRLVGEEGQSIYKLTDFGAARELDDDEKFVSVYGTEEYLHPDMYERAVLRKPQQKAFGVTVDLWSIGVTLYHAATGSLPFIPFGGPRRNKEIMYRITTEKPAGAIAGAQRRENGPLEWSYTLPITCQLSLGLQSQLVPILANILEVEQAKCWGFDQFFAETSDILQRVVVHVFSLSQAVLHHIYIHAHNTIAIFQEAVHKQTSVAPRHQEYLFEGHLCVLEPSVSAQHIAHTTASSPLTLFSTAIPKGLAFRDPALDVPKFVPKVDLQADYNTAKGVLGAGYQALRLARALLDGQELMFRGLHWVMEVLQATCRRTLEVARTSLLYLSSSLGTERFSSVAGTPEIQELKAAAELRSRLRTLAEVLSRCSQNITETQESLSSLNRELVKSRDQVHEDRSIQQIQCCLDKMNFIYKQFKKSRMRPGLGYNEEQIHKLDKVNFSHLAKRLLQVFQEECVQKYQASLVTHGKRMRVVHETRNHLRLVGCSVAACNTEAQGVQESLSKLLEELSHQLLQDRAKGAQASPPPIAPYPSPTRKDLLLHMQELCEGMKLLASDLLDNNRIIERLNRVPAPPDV

[8] = target: Tyrosine-protein kinase JAK1 (Homo sapiens, UniProt P23458)

Measured: Kd
Also: in the data inactive means no Kd found up to 30 µM.

Sequence of Serine/threonine-protein kinase SIK2 (Q9H0K1 whole entry): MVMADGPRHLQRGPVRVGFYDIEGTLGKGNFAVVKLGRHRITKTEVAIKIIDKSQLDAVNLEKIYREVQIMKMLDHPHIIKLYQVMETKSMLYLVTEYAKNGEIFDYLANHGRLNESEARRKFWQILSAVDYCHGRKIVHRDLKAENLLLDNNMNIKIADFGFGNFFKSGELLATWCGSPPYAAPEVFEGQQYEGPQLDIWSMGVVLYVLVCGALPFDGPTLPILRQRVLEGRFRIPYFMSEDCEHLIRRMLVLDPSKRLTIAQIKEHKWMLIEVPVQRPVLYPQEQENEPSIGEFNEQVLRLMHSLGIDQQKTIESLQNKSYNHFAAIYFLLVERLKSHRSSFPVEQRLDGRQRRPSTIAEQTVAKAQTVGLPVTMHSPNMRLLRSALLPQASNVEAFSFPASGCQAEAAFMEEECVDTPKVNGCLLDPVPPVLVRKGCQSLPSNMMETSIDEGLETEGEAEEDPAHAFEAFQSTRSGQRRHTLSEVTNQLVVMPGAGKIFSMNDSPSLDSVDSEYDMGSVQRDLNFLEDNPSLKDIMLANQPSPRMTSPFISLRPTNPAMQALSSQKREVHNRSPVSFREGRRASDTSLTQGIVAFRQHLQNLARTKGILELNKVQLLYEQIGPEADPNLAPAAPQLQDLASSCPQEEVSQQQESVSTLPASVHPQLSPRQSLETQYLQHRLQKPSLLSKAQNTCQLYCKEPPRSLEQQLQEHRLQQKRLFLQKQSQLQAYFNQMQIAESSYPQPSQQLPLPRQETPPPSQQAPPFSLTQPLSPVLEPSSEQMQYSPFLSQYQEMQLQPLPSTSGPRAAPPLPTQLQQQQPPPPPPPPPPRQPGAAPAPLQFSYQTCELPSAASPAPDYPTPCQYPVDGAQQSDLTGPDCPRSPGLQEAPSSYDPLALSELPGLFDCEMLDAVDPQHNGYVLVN
Sequence of Tyrosine-protein kinase JAK1 (P23458 whole entry): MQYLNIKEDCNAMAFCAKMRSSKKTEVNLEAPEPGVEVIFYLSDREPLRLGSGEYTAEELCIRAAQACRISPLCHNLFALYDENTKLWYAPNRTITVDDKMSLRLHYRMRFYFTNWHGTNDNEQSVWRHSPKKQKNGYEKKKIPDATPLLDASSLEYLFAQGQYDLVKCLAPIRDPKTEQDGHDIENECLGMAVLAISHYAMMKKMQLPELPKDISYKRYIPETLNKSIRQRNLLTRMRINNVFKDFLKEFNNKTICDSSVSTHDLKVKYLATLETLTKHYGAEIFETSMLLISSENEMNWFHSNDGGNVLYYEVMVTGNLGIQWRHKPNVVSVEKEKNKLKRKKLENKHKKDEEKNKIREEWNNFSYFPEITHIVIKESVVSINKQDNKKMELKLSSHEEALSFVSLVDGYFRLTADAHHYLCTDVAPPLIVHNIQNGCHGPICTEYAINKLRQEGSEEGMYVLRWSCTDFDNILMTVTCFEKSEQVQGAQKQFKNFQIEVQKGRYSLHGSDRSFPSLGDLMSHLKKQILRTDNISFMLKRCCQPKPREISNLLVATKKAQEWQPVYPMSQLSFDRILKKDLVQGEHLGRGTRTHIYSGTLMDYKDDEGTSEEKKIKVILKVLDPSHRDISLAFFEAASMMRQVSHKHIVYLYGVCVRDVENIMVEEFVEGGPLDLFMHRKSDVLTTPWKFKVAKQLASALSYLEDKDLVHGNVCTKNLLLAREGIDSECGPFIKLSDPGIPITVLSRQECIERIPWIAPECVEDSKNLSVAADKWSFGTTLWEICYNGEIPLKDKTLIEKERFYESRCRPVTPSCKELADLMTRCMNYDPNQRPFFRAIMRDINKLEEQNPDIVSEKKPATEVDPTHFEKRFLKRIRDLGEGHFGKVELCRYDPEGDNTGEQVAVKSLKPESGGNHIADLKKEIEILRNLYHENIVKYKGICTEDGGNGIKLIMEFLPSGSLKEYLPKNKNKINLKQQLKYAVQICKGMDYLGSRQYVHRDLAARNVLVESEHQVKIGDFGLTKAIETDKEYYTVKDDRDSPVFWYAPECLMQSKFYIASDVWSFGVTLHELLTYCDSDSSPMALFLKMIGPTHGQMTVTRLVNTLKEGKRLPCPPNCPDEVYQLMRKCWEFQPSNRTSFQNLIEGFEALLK
Sequence of Protein kinase C delta type (Q05655 whole entry): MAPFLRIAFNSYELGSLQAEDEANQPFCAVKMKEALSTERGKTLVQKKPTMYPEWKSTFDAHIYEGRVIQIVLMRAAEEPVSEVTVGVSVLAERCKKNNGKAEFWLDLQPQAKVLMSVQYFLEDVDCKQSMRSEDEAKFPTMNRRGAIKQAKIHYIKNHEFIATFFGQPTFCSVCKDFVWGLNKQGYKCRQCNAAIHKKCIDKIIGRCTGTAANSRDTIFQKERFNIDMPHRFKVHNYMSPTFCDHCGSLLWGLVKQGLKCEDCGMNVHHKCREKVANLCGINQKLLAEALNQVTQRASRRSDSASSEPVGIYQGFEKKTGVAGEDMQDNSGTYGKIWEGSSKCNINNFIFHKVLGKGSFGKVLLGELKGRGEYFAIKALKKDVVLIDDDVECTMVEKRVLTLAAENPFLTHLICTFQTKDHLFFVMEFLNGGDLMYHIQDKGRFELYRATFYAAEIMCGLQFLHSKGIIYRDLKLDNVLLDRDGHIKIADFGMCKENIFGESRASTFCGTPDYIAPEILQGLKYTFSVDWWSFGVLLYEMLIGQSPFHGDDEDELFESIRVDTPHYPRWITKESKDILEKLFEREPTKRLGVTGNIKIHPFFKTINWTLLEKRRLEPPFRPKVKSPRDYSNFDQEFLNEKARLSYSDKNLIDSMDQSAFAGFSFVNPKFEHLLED
Sequence of Cyclin-dependent kinase 5 (Q00535 whole entry): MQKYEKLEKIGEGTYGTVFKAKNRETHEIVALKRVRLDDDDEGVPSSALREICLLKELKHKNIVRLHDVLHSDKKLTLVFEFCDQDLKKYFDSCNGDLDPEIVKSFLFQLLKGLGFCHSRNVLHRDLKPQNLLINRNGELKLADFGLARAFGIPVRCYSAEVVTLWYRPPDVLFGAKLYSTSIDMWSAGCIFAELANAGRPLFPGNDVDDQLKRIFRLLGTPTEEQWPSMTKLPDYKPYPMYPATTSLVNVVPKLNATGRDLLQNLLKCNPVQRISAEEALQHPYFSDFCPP

CCc1cc2c(cc1N1CCC(N3CCOCC3)CC1)C(C)(C)c1[nH]c3cc(C#N)ccc3c1C2=O [ALECTINIB]
inactive: [1] > 30 µM | [2] > 30 µM | [3] > 30 µM | [4] > 30 µM | [5] > 30 µM | [6] > 30 µM | Glycine--tRNA ligase > 30 µM | [7] > 30 µM | [8] > 30 µM

O=S(=O)(c1cccc2c(O)nccc12)N1CCCNCC1 [HYDROXYFASUDIL]
inactive: [1] > 30 µM | [2] > 30 µM | [3] > 30 µM | [4] > 30 µM | [5] > 30 µM | [6] > 30 µM | Glycine--tRNA ligase > 30 µM | [7] > 30 µM | [8] > 30 µM
